What was measured:
murine neutrophils = assay: Two-chamber migration of neutrophils recruited by media of neutrophils pre-treated with 4T07 CM; assay type: cell-based; settings: media of neutrophils pre-treated with CM of 4T07 with CTSC overexpressed; FIG. 7E
Protocol: The procedure of two-chamber migration assays was previously described (Zhuang et al., “Differential effects on lung and bone metastasis of breast cancer by Wnt signalling inhibitor DKK1,” Nat. Cell Biol. 19:1274-1285 (2017)). Briefly, 5×10^5 freshly isolated neutrophils in RPMI 1640 were added to the upper chamber (363096, BD), and a 1:1 mixture of RPMI 1640 and cancer cell CM, or medium from neutrophils cultured in cancer cell CM, was added to the lower chamber as the chemoattractant. The migrated cells in the lower chamber were counted after 3 h.

[1] = system: SCP28 cells overexpressing CTSC; assay: Mice injected with CTSC-overexpressed SCP28 cells, treated with Sivelestat or DNase I; assay type: in vivo
Protocol: Female BALB/c and athymic mice aged 6-10 weeks were used in all animal experiments. Orthotropic and intravenous injection were performed as previously described (Zhuang et al., “Differential effects on lung and bone metastasis of breast cancer by Wnt signalling inhibitor DKK1,” Nat. Cell Biol. 19:1274-1285 (2017)). For EdU labeling assays, nude mice were intravenously injected with 2×10^5 cancer cells, followed by intraperitoneal (i.p.) injection of 100 ng/mouse EdU (ThermoFisher, C10640) 24 h before lung harvest. For neutrophil depletion assays, mice received 2 initial i.p. injection (200 μg/mouse) of 1A8 Ly6G antibody (BE0075-1, BioXCel) or rat IgG control (14131, Sigma) every 3 days before cancer cell injection and then maintenance injection twice a week after cancer cell injection. For Sivelestat or DNase I treatment, mice were i.p. injected with Sivelestat (50 mg/kg) or DNase I (5 mg/kg) 2 h before cancer cell injection, followed by daily injection of the reagents for 9 days, and then maintenance shots twice a week. For GSK484 treatment, mice were treated with GSK484 (20 mg/kg, i.p. daily shots for 20 days from day 7, and then maintenance shots every two days) following orthotopic injection of AT3 or 4T07 cells. For IL-1b blocking or IL6R/CCR1 inhibition assays, mice were orthotopically inoculated with 5×10^4 AT3 and treated with i.p. administration of IgG or the IL-1β blocking antibody (100 μg per mouse), or the IL6R blocking antibody (100 μg per mouse) and the CCR1 inhibitor BX471 (20 mg/kg), every two days from day 7 until the mice were sacrificed. For brensocatib treatment, BALB/c mice were orthotopically inoculated with 1×10^5 4T1 cells, and C57/BL6 mice were orthotopically inoculated with 2×10^5 AT3. […]
The number of myeloperoxidase-positive neutrophils around GFP^+ cancer cells in the lungs of mice 72 h after injection with CTSC-overexpressed SCP28 is quantified by immunostaining of the lung tissue. […]

CTSC = biological target: T1, CTSC (Homo sapiens, UniProt P53634); assay: CTSC protein expression in metastatic tumor cells; assay type: cell-based; settings: a number of metastatic tumor cell types treated with brensocatib; FIGS. 11A-C
T1 construct: The CTSC protein secretion level in tumor cells with different capabilities of metastasis to various target organs; endogenous in cells; host or cells: metastatic breast cancer cells (MDA-MB-231, SP16, SP16L; bone-metastatic lines) and bone-metastatic lung cancer cells
Protocol: Cultured cells were collected by scraper or trypsinized and then lysed with lysis buffer (50 mM Tris-HCl, 150 mM NaCl, 1% NP-40 detergent, 0.5% sodium deoxycholate, 0.1% SDS with phosphatase and protease inhibitors), and dispersed tissue were homogenized in RIPA buffer on ice for 15 min, followed by centrifugation at 17,000 g for 15 min. The protein concentration was measured with a BCA Protein Assay Kit. Proteins of 10 μg, 80 μg, 30 μg were loaded for membrane proteins, IL-1β processing, p65 phosphorylation and the other assays, respectively, and separated on 8-12% SDS-polyacrylamide gel. For cancer cell conditioned medium (CM) collection, cells were grown to ~80% confluence in 10 cm culture dishes. After three times washing with serum-free medium at 37° C., the cells were incubated in serum-free medium at 37° C. for 24 h. The CM were collected, centrifuged at 2,000 g for 10 min, filtrated by 0.22 μm filters, stored at −80° C. until used. The secreted proteins in CM were collected by TCA precipitation. Briefly, 25% v/v TCA was added into 1 ml CM with phosphatase and protease inhibitors, incubated overnight at 4° C., and then centrifuged at 20,000 g for 60 min, after which the supernatant was discarded and the pellet was washed twice with 1 ml pre-chilled acetone, centrifuged again at 20,000 g for 5 min at 4° C. […]

4T1 cells = assay: Brensocatib treatment of mice after fat pad injection of 4T1 cells (lung metastasis of breast cancer); assay type: in vivo, BALB/c mice; settings: brensocatib 5 mg/kg orally twice daily
Protocol: Female BALB/c and athymic mice aged 6-10 weeks were used in all animal experiments. Orthotropic and intravenous injection were performed as previously described (Zhuang et al., “Differential effects on lung and bone metastasis of breast cancer by Wnt signalling inhibitor DKK1,” Nat. Cell Biol. 19:1274-1285 (2017)). For EdU labeling assays, nude mice were intravenously injected with 2×10^5 cancer cells, followed by intraperitoneal (i.p.) injection of 100 ng/mouse EdU (ThermoFisher, C10640) 24 h before lung harvest. For neutrophil depletion assays, mice received 2 initial i.p. injection (200 μg/mouse) of 1A8 Ly6G antibody (BE0075-1, BioXCel) or rat IgG control (14131, Sigma) every 3 days before cancer cell injection and then maintenance injection twice a week after cancer cell injection. For Sivelestat or DNase I treatment, mice were i.p. injected with Sivelestat (50 mg/kg) or DNase I (5 mg/kg) 2 h before cancer cell injection, followed by daily injection of the reagents for 9 days, and then maintenance shots twice a week. For GSK484 treatment, mice were treated with GSK484 (20 mg/kg, i.p. daily shots for 20 days from day 7, and then maintenance shots every two days) following orthotopic injection of AT3 or 4T07 cells. For IL-1b blocking or IL6R/CCR1 inhibition assays, mice were orthotopically inoculated with 5×10^4 AT3 and treated with i.p. administration of IgG or the IL-1β blocking antibody (100 μg per mouse), or the IL6R blocking antibody (100 μg per mouse) and the CCR1 inhibitor BX471 (20 mg/kg), every two days from day 7 until the mice were sacrificed. For brensocatib treatment, BALB/c mice were orthotopically inoculated with 1×10^5 4T1 cells, and C57/BL6 mice were orthotopically inoculated with 2×10^5 AT3. Vehicle controls (0.5% HPMC, 0.1% Tween 80 in 0.1 M citrate buffer, pH 3) and brensocatib (5 mg/kg) were administered orally twice daily until the mice were sacrificed. Orthotopic tumors were surgically removed at the size of about 1 cm^3. Recombinant human active PR3 treatment (1.5 mg/kg) was administrated intravenously daily after intravenous inoculation of […] LM2 cells. For TSP-1 degradation assays, mice were i.p. injected with GSK484 (20 mg/kg) 2 h before cancer cell injection and followed by daily treatment. Then, the lungs were perfused with 50 ml of pre-chilled PBS through the right ventricle until they were cleared of blood at 72 h post injection of 3×10^6 AT3 or 4T07 cells. BLI was acquired with NightOWL II LB983 Imaging System (Bert-hold) and IVIS Spectrum CT (PerkinElmer). All animal studies were conducted according to the guidelines for the care and use of laboratory animals and were approved by the Institutional Animal Care and Use Committee of Shanghai Institute of Nutrition and Health.
The use of CTSC inhibitors to treat lung metastasis of breast cancer is investigated. Brensocatib (also known as AZD7986 or INS1007) is a CTSC-specific inhibitor used for treating Non-Cystic Fibrosis Bronchiectasis, and has currently entered Phase II clinical trials. See Doyle et aL, “Discovery of second generation reversible covalent DPP1 inhibitors leading to an oxazepane amidoacetonitrile based clinical candidate (AZD7986),” J. Med. Chem. 59:9457-9472 (2016). Brensocatib is administered to mice 7 days after the introduction of 4T1 cells via fat pad injection. A vehicle control group is also provided. Graphical data for change in tumor volume over time, numbers of pulmonary nodules formed, changes in mouse weight over time, and mouse survival rates, as well as the statistical diagram of the number of NETs in the lesions, are shown in FIGS. 10A-E. CTSC inhibitor brensocatib also suppresses the NETs-promoted tumor sphere formation of 4T1 cells (FIG. 10F).

[2] = system: pancreatic cancer cells KP4; assay: Mouse xenograft, pancreatic tumor cells by spleen injection (liver metastasis); assay type: in vivo; settings: nude mice, FIG. 12C
Protocol: A series of mouse xenograft studies are conducted by injecting liver and pancreatic tumor cells into nude mice by spleen injection. Then the mice are treated by brensocatib, and the growth of the tumors in liver is observed.

T1 sequence (P53634 25-463): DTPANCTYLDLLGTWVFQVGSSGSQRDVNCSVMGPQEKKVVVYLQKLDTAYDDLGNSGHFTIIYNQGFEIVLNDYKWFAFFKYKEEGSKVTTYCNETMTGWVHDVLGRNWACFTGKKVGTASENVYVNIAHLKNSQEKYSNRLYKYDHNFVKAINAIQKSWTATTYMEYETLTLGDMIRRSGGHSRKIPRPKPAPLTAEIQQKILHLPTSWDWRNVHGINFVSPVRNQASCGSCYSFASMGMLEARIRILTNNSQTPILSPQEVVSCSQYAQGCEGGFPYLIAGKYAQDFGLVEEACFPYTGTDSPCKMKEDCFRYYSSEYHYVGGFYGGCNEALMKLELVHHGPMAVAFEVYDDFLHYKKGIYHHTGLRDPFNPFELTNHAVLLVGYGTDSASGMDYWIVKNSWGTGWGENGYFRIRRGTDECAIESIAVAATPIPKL

Structure (SMILES) | migration of murine neutrophils (murine neutrophils) | neutrophil aggregation around cancer cells in the lungs ([1]; 7 weeks post-injection, FIG. 7G) | neutrophil aggregation around cancer cells in the lungs ([1]; 72 h after injection, Sivelestat 50 mg/kg i.p., FIG. 7F) | lung metastasis (BLI) ([1]; up to 8 weeks post-injection, Sivelestat 50 mg/kg or DNase I 5 mg/kg i.p., FIG. 8G) | CTSC protein expression (CTSC) | in situ tumor volume vs. time (primary tumor growth) (4T1 cells; from 7 days after 4T1 fat pad injection, vs untreated control, FIG. 10A) | formation of NETs in the lung metastatic lesions (4T1 cells; FIG. 10E) | pulmonary nodule formation (4T1 cells; vs untreated mice, FIG. 10B) | body weight decrease (4T1 cells; vs untreated mice, FIG. 10C) | survival rate (4T1 cells; vs untreated mice, FIG. 10D) | neutrophil infiltration in the pulmonary lesions (4T1 cells; vs untreated mice, FIG. 10E) | metastatic growth of pancreatic cancer cells KP4 in liver [2]
CC(C)(C)C(=O)Oc1ccc(S(=O)(=O)Nc2ccccc2C(=O)NCC(=O)O)cc1 [Silvelestat] | significantly reduced | persist through 7 weeks post-injection | decreases | suppressed | – | – | – | – | – | – | – | –
Cn1c(=O)oc2ccc(-c3ccc(C[C@@H](C#N)NC(=O)[C@@H]4CNCCCO4)cc3)cc21 [brensocatib, (2S)—N-{(1S)-1-cyano-2-[4-(3-methyl-2-oxo-2,3-dihydro-1,3-benzoxazol-5-yl)phenyl]ethyl}-1,4-oxazepane-2-carboxamide] | – | – | – | – | significantly reduced | does not affect primary tumor growth | significantly inhibits | significantly reduced | lower than untreated mice | significantly improves | reduced relative to untreated mice | significantly inhibits

Source: US12697328B2, “Methods for treating metastasis with cathepsin C inhibitors” (Shanghai Institute of Nutrition and Health, Chinese Academy …, priority 2020, dated 2026)
